Test results as given in PMC10263210, “Design, Synthesis and Biological Evaluation of Novel MDH Inhibitors Targeting Tumor Microenvironment” (Pharmaceuticals, 2023).

Assays:
[1] = tested on: CD73; experiment: CD73 ELISA; type: cell-based, human; settings: A549 cells; for CD73 level (%): hypoxic conditions, 0 μM = 100
Protocol: (§1) It has been reported that CD73 expression is induced by HIF-1α under hypoxic conditions. Therefore, we examined whether the expression of CD73 is inhibited by compound 50 under hypoxia in A549 lung cancer cells. […] To confirm the effect of compound 50 on CD73 expression, we performed ELISA for CD73.
The prepared samples were incubated with the same amount of antibody cocktail for 1 h at room temperature and then washed three times with PT buffer. After washing, the plates were developed by adding 100 µL of TMB development solution, and the reaction was stopped by adding 100 µL of stop solution. The amount of CD73 was quantitatively measured according to the instructions on the Human CD73 Simplestep ELISA kit (Abcam, Cambridge, UK).

[2] = Lactate consumption in treated cells; type: cell-based; settings: cells treated with compound
Excerpt: In contrast, high aerobic glycolysis distinguishes cancer cells from normal cells and has been exploited to detect tumors in vivo. […] Cancer cells consume the secreted lactate to produce ATP through the TCA cycle and oxidative phosphorylation processes. Some cancer cells use lactate as a substrate for TCA intermediates via monocarboxylate transporters (MCT1/4) as well as for ATP production. Lactate can be converted to pyruvate using lactate dehydrogenase (LDH) and can be further converted to acetyl-CoA by […] for fatty acid synthesis.

[3] = tested on: HIF-1α; experiment: Western blot of HIF-1α and its target genes under hypoxia; type: cell-based, human; settings: A549 cells, hypoxia
Protocol: Previously, it has been reported that the inhibition of MDH1 or MDH2 enzymes is related to HIF-1a expression levels. We investigated whether compound 50 decreases HIF-1α accumulation in A549 cells (Figure 6). […] Additionally, we confirmed that compound 50 suppressed the protein expression of HIF-1α target genes, such as GLUT1 and PDK1 (Figure 6), as clearly shown by the Western blot assay.
(§2) Human lung carcinoma A549 cells were cultured in Dulbecco’s modified Eagle’s medium and H460 cells were cultured in RPMI 1640 medium containing 10% fetal bovine serum and 1% penicillin/streptomycin at 37 °C with a 5% Co2 hypoxia experimental condition. The cells were grown in the hypoxia chamber (1% O2, 94% N2, and 5% Co2 in a multigas incubator)
(§3) The cells were lysed with RIPA buffer (Millipore, Billerica, MA, USA) containing a protease inhibitor cocktail (Roche, Basel, Switzerland) for 15 min at 4 °C and centrifuged at 12,000 rpm for 10 min. The lysates were quantified using a protein assay kit (Bio-Rad, Hercules, CA, USA). The lysates were subjected to an SDS-PAGE analysis and transferred to PVDF membranes (Millipore, Billerica, MA, USA). The proteins were identified using the appropriate antibodies: HIF-1α (BD Transduction Laboratories, San Diego, CA, USA), pyruvate dehydrogenase kinase 1 (PDK1) (Cell Signaling, Danvers, MA, USA), GLUT1 and β-action (Santa Cruz Biotechnology, Danvers, MA, USA), and CD73 (Proteintech, Rosemont, IL, USA).

[4] = target: T1, human recombinant MDH2 (Homo sapiens, UniProt P40926); experiment: MDH2 enzyme activity assay (oxaloacetate-dependent NADH oxidation); type: biochemical; settings: means of three experiments
T1 construct: purchased BioVision
T1 sequence (P40926 25-338): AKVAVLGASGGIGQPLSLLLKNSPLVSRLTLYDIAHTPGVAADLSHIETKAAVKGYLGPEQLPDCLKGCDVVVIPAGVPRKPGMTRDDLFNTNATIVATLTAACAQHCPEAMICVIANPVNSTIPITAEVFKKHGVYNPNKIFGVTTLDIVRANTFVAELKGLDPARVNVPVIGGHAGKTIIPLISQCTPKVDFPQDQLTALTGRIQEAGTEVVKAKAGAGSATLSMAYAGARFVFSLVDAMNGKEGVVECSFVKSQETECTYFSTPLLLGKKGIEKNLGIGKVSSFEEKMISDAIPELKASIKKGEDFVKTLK
Excerpt: To develop the dual inhibitors of MDH1 and MDH2, we screened the newly synthesized LW1497 derivatives using MDH and MDH2 enzyme assays. LW1497 was used as the positive control for the MDH1/2 dual inhibitor. We evaluated the ability of the synthesized compounds to inhibit human recombinant MDH1 and MDH2 enzymatic activity using an oxaloacetate-dependent NADH oxidation assay (Table 1, Table 2, Table 3, Table 4, Table 5 and Table 6). Our SAR optimization strategy focused on four different parts of LW1497: (A) the introduction of various groups at different positions on the amide phenyl ring; (B) the replacement of the 3-(4-(2,4,4-trimethylpentan-2-yl) alkyl chain; (C) the alteration of the amide portion; and (D) the modification of the oxypropanamide linker portion (Figure 1).
The activities of MDH1 and MDH2 were confirmed using an oxaloacetate-dependent NADH oxidation assay. Experiments were conducted using 100 mM of potassium phosphate buffer (pH 7.4) and human recombinant MDH1 (BioVision) and MDH2 (BioVision), and the results were obtained by measuring the absorbance at 340 nm. Enzyme activity was measured using a plate reader at a wavelength of 340 nm.

[5] = tested on: H460 lung cancer cells; experiment: Cell growth inhibition assay (SRB), H460; type: cell-based; settings: Homo sapiens, NCI-H460, means of three experiments, read-out: Cell Viability IC50 H460
Protocol: (§4) At the same time, we investigated the effect of the compounds on the growth inhibition of A549 and H460 lung cancer cells bearing KRAS and LKB1 mutations. […] Compound 50 containing a piperidine linker was selected for further analysis.
as §2
(§5) Cell growth inhibition was assessed using sulforhodamine B (SRB) as described in [34]. The cells were fixed with 10% formalin (Sigma-Aldrich) and stained with 0.4% SRB. Protein-bound dye was dissolved in 10 mM of Tris, and its optical density was measured at 540 nm.

[6] = tested on: A549 lung cancer cells; experiment: Cell growth inhibition assay (SRB), A549; type: cell-based; settings: Homo sapiens, means of three experiments, read-out: Cell Viability IC50 A549
Protocol: as §4, §2, §5

[7] = tested on: A549 cells; experiment: Real-time ATP production rate (XF analyzer); type: cell-based, human
Excerpt: We then examined whether the ATP production pattern was altered by drug treatment using an XF analyzer for real-time metabolic analysis (Figure 5).

[8] = tested on: CD73; experiment: Western blot of CD73 expression under hypoxia; type: cell-based, human; settings: A549 cells
Protocol: as §1, §2, §3

CC(C)(C)CC(C)(C)c1ccc(N2CCC(C(=O)Nc3cccc(OC(F)(F)F)c3)CC2)cc1 [Compound 50, N-(3-(Trifluoromethoxy)phenyl)-1-(4-(2,4,4-trimethylpentan-2-yl)phenyl)piperidine-4-carboxamide]
CD73 levels ([1]; ELISA): reduced CD73 levels in A549 cells in a dose-dependent manner | CD73 level (%) ([1]; 2.5 μM): 90% | CD73 level (%) ([1]; 5.0 μM): 84% | CD73 level (%) ([1]; 10 μM): 68% | Lactate consumption [2]: did not change significantly | HIF-1α accumulation [3]: decreased HIF-1α accumulation in a dose-dependent manner | protein expression of HIF-1α target genes GLUT1 and PDK1 ([3]; Western blot): suppressed | IC50 [4]: 2.24 ± 0.09 µM | melting point: 139 to 140 °C | IC50 [5]: 3.67 ± 0.06 µM | IC50 [6]: 3.94 ± 0.04 µM | total ATP decrease ([7]; 5 µM): 14.6% | total ATP decrease ([7]; 10 µM): 28.6% | CD73 expression increased by HIF-1α [8]: significantly decreased
